Measured values taken from PubChem BioAssay AID2060893 (Molecular Pharmacology Branch, DTP, NCI, 2025).

System: K86415-001-R-J1-PDC complex spheroids, viability
Experiment: Anticancer human tumor K86415-001-R-J1-PDC patient-derived lung adenocarcinoma cell line growth inhibition [RAS]
Conditions: second compound 0.316 µM; first compound 0.0316 µM; hits give low values
Procedure, shortened: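 Agents were tested in combination matrices in half-log decrements from a top concentration at or near clinical Cmax (10 microM if undetermined). Targets were multi-cell spheroids of tumour lines plus HUVEC and MSC stromal cells.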
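Also: spheroids exposed to agents for seven days before readout.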

Structure (SMILES)	viability, T/C [%]
CC(C)n1nc(-c2ccc3oc(N)nc3c2)c2c(N)ncnc21 + C=CC(=O)N1CCN(c2nc(OCC3CCCN3C)nc3c(F)c(-c4nc(N)cc(C)c4C(F)(F)F)c(Cl)cc23)C(C)C1	6.52
CC(Nc1ccc2c(c1)OCCn1cc(N3C(=O)OCC3C(F)F)nc1-2)C(N)=O (stereo unspecified) + C=CC(=O)N1CCN(c2nc(OCC3CCCN3C)nc3c(F)c(-c4nc(N)cc(C)c4C(F)(F)F)c(Cl)cc23)C(C)C1	8.27
C[C@@H](NC(=O)c1ncnc(N)c1Cl)c1ncc(C(=O)Nc2cc(C(F)(F)F)c(Cl)cn2)s1 + C=CC(=O)N1CCN(c2nc(OCC3CCCN3C)nc3c(F)c(-c4nc(N)cc(C)c4C(F)(F)F)c(Cl)cc23)C(C)C1	10.6
O=C(c1ccc(F)c(F)c1Nc1ccc(I)cc1F)N1CC(O)([C@@H]2CCCCN2)C1 + C=CC(=O)N1CCN(c2nc(OCC3CCCN3C)nc3c(F)c(-c4nc(N)cc(C)c4C(F)(F)F)c(Cl)cc23)C(C)C1	6.81

Same assay, conditions: second compound 0.316 µM; first compound 0.1 µM; hits give low values

Structure (SMILES)	viability, T/C [%]
CC(C)NCC(C(=O)N1CCN(c2ncnc3c2C(C)CC3O)CC1)c1ccc(Cl)cc1 (stereo unspecified) + C=CC(=O)N1CCN(c2nc(OCC3CCCN3C)nc3c(F)c(-c4nc(N)cc(C)c4C(F)(F)F)c(Cl)cc23)C(C)C1	8.49
CC(C)n1nc(-c2ccc3oc(N)nc3c2)c2c(N)ncnc21 + C=CC(=O)N1CCN(c2nc(OCC3CCCN3C)nc3c(F)c(-c4nc(N)cc(C)c4C(F)(F)F)c(Cl)cc23)C(C)C1	3.86
CC(Nc1ccc2c(c1)OCCn1cc(N3C(=O)OCC3C(F)F)nc1-2)C(N)=O (stereo unspecified) + C=CC(=O)N1CCN(c2nc(OCC3CCCN3C)nc3c(F)c(-c4nc(N)cc(C)c4C(F)(F)F)c(Cl)cc23)C(C)C1	6.69
C[C@@H](NC(=O)c1ncnc(N)c1Cl)c1ncc(C(=O)Nc2cc(C(F)(F)F)c(Cl)cn2)s1 + C=CC(=O)N1CCN(c2nc(OCC3CCCN3C)nc3c(F)c(-c4nc(N)cc(C)c4C(F)(F)F)c(Cl)cc23)C(C)C1	11.1
O=C(c1ccc(F)c(F)c1Nc1ccc(I)cc1F)N1CC(O)([C@@H]2CCCCN2)C1 + C=CC(=O)N1CCN(c2nc(OCC3CCCN3C)nc3c(F)c(-c4nc(N)cc(C)c4C(F)(F)F)c(Cl)cc23)C(C)C1	5.26

Same assay, conditions: second compound 0.316 µM; first compound 0.316 µM; hits give low values

Structure (SMILES)	viability, T/C [%]
CC(C)NCC(C(=O)N1CCN(c2ncnc3c2C(C)CC3O)CC1)c1ccc(Cl)cc1 (stereo unspecified) + C=CC(=O)N1CCN(c2nc(OCC3CCCN3C)nc3c(F)c(-c4nc(N)cc(C)c4C(F)(F)F)c(Cl)cc23)C(C)C1	6.58
CC(Nc1ccc2c(c1)OCCn1cc(N3C(=O)OCC3C(F)F)nc1-2)C(N)=O (stereo unspecified) + C=CC(=O)N1CCN(c2nc(OCC3CCCN3C)nc3c(F)c(-c4nc(N)cc(C)c4C(F)(F)F)c(Cl)cc23)C(C)C1	4.1
C[C@@H](NC(=O)c1ncnc(N)c1Cl)c1ncc(C(=O)Nc2cc(C(F)(F)F)c(Cl)cn2)s1 + C=CC(=O)N1CCN(c2nc(OCC3CCCN3C)nc3c(F)c(-c4nc(N)cc(C)c4C(F)(F)F)c(Cl)cc23)C(C)C1	10.8
O=C(c1ccc(F)c(F)c1Nc1ccc(I)cc1F)N1CC(O)([C@@H]2CCCCN2)C1 + C=CC(=O)N1CCN(c2nc(OCC3CCCN3C)nc3c(F)c(-c4nc(N)cc(C)c4C(F)(F)F)c(Cl)cc23)C(C)C1	5.12

Same assay, conditions: second compound 0.316 µM; first compound 1 µM; hits give low values

Structure (SMILES)	viability, T/C [%]
CC(C)NCC(C(=O)N1CCN(c2ncnc3c2C(C)CC3O)CC1)c1ccc(Cl)cc1 (stereo unspecified) + C=CC(=O)N1CCN(c2nc(OCC3CCCN3C)nc3c(F)c(-c4nc(N)cc(C)c4C(F)(F)F)c(Cl)cc23)C(C)C1	5.42
CC(Nc1ccc2c(c1)OCCn1cc(N3C(=O)OCC3C(F)F)nc1-2)C(N)=O (stereo unspecified) + C=CC(=O)N1CCN(c2nc(OCC3CCCN3C)nc3c(F)c(-c4nc(N)cc(C)c4C(F)(F)F)c(Cl)cc23)C(C)C1	5.15
C[C@@H](NC(=O)c1ncnc(N)c1Cl)c1ncc(C(=O)Nc2cc(C(F)(F)F)c(Cl)cn2)s1 + C=CC(=O)N1CCN(c2nc(OCC3CCCN3C)nc3c(F)c(-c4nc(N)cc(C)c4C(F)(F)F)c(Cl)cc23)C(C)C1	10.8
O=C(c1ccc(F)c(F)c1Nc1ccc(I)cc1F)N1CC(O)([C@@H]2CCCCN2)C1 + C=CC(=O)N1CCN(c2nc(OCC3CCCN3C)nc3c(F)c(-c4nc(N)cc(C)c4C(F)(F)F)c(Cl)cc23)C(C)C1	1.9

Same assay, conditions: second compound 0.316 µM; first compound 3.16 µM; hits give low values

Structure (SMILES)	viability, T/C [%]
CC(C)NCC(C(=O)N1CCN(c2ncnc3c2C(C)CC3O)CC1)c1ccc(Cl)cc1 (stereo unspecified) + C=CC(=O)N1CCN(c2nc(OCC3CCCN3C)nc3c(F)c(-c4nc(N)cc(C)c4C(F)(F)F)c(Cl)cc23)C(C)C1	7.11
CC(Nc1ccc2c(c1)OCCn1cc(N3C(=O)OCC3C(F)F)nc1-2)C(N)=O (stereo unspecified) + C=CC(=O)N1CCN(c2nc(OCC3CCCN3C)nc3c(F)c(-c4nc(N)cc(C)c4C(F)(F)F)c(Cl)cc23)C(C)C1	2.4
C[C@@H](NC(=O)c1ncnc(N)c1Cl)c1ncc(C(=O)Nc2cc(C(F)(F)F)c(Cl)cn2)s1 + C=CC(=O)N1CCN(c2nc(OCC3CCCN3C)nc3c(F)c(-c4nc(N)cc(C)c4C(F)(F)F)c(Cl)cc23)C(C)C1	10.5

Same assay, conditions: second compound 0.316 µM; first compound 10 µM; hits give low values

Structure (SMILES)	viability, T/C [%]
CC(C)NCC(C(=O)N1CCN(c2ncnc3c2C(C)CC3O)CC1)c1ccc(Cl)cc1 (stereo unspecified) + C=CC(=O)N1CCN(c2nc(OCC3CCCN3C)nc3c(F)c(-c4nc(N)cc(C)c4C(F)(F)F)c(Cl)cc23)C(C)C1	4.04
CC(Nc1ccc2c(c1)OCCn1cc(N3C(=O)OCC3C(F)F)nc1-2)C(N)=O (stereo unspecified) + C=CC(=O)N1CCN(c2nc(OCC3CCCN3C)nc3c(F)c(-c4nc(N)cc(C)c4C(F)(F)F)c(Cl)cc23)C(C)C1	1.49
C[C@@H](NC(=O)c1ncnc(N)c1Cl)c1ncc(C(=O)Nc2cc(C(F)(F)F)c(Cl)cn2)s1 + C=CC(=O)N1CCN(c2nc(OCC3CCCN3C)nc3c(F)c(-c4nc(N)cc(C)c4C(F)(F)F)c(Cl)cc23)C(C)C1	10.7

Same assay, conditions: second compound 1 µM; first compound 0.000316 µM; hits give low values

Structure (SMILES)	viability, T/C [%]
CC(C)n1nc(-c2ccc3oc(N)nc3c2)c2c(N)ncnc21 + C=CC(=O)N1CCN(c2nc(OCC3CCCN3C)nc3c(F)c(-c4nc(N)cc(C)c4C(F)(F)F)c(Cl)cc23)C(C)C1	8.74

Same assay, conditions: second compound 1 µM; first compound 0.001 µM; hits give low values

Structure (SMILES)	viability, T/C [%]
CC(C)n1nc(-c2ccc3oc(N)nc3c2)c2c(N)ncnc21 + C=CC(=O)N1CCN(c2nc(OCC3CCCN3C)nc3c(F)c(-c4nc(N)cc(C)c4C(F)(F)F)c(Cl)cc23)C(C)C1	8.53

Same assay, conditions: second compound 1 µM; first compound 0.00316 µM; hits give low values

Structure (SMILES)	viability, T/C [%]
CC(C)n1nc(-c2ccc3oc(N)nc3c2)c2c(N)ncnc21 + C=CC(=O)N1CCN(c2nc(OCC3CCCN3C)nc3c(F)c(-c4nc(N)cc(C)c4C(F)(F)F)c(Cl)cc23)C(C)C1	8.04
